Measured values from US9248202B2, “Two-photon probe for detecting copper(II) ion and quantitative estimation of copper(II) ion in human tissue using the same” (Korea University Research and Business Foundation, priority 2014, dated 2016).

Experiments:
[1] = Absorption and fluorescence spectra, quantum yield, energy transfer; format: physicochemical; conditions: for φ (fluorescence quantum yield): uncertainty ± 15%; for λmax^abs: one-photon absorption; for λmax^t1: one-photon emission
Experimental: Absorption spectra were recorded using the Hewlett-Packard 8453 diode array spectrophotometer and fluorescence spectra were measured using the Amico-Bowman series 2 luminescence spectrometer a 1 cm standard quartz cell. The fluorescence quantum yield was determined using coumarin 307 and rhodamine B as references according to the literature method (J. N. Demas, G. A. Crosby, J. Phys. Chem. 1971, 75, 991).
(hereinafter, ‘ACCu2’), a compound of [Chemical Formula 12] (hereinafter, ‘FL’) and a compound of [Chemical Formula 13] (hereinafter, ‘IR’) in 1,4-dioxane, DMF, ethanol, EtOH/HEPES (9:1) and HEPES buffer ([HEPES]=20 mM, pH 7.0). Excitation wavelength was 420 nm. The solubility of ACCu2 in HEPES buffer ([HEPES]=20 mM, pH 7.0) as determined by the fluorescence method described in the literature (Kim, H. M.; Choo, H. J.; Jung, S. Y.; Ko, Y. G.; Park, W. H.; Jeon, S. J.; Kim, C. H.; Joo, T. H.; Cho, B. R. Chem Bio Chem 2007, 8, 553) was 8.0 μM, which was sufficient to stain cells.
To assess the origin of the spectral changes, the energy transfer efficiency (ETE) was calculated using Equation (1). The ETE was 93.4%.
In Equation (1), AIR and AIR′ are the absorbances of the IR moiety and IR, respectively, and FIR and FIR′ are the emission intensities of the IR moiety and IR, respectively, upon excitation at 373 nm.
The antenna effect in the one-photon (OP) (or TP) mode was 3.0 (or 3.1). The antenna effect was calculated by dividing the area of emission from the FL moiety upon excitation of the IR moiety at 373 nm (or 750 nm in the TP mode) by that collected from the direct excitation of FL at 461 nm (or 880 nm in the […]).

rat brain tissue = experiment: Quantitative estimation of copper(II) ion in rat brain tissue slices by TPM
Experimental: Slices were prepared from the hippocampi and hypothalami of 2-day-old Sprague-Dawley (SD) rats. Coronal slices were cut into 400 μm thickness using a vibrating-blade microtome in artificial cerebrospinal fluid (ACSF; 138.6 mM NaCl, 3.5 mM KCl, 21 mM NaHCO3, 0.6 mM NaH2PO4, 9.9 mM D-glucose, 1 mM CaCl2 and 3 mM MgCl2). The slices were incubated with 20 μM ACCu2 in ACSF bubbled with 95% O2 and 5% CO2 for 30 minutes at 37° C. The slices were e then washed 3 times with ACSF, transferred to glass-bottomed dishes (MatTek) and observed with spectral confocal and rnultiphoton microscopy.
Because the structure of the brain tissue is heterogeneous, TPM images were acquired at depths of 90-190 μm to visualize the overall copper(II) on distribution.

HeLa cells = experiment: Cell viability, CCK-8 kit; format: cell-based, human; conditions: various ACCu2 concentrations
Experimental: HeLa human cervical carcinoma cells were acquired from the ATCC (Manassas, Va., USA). The cells were cultured in DMEM (WelGene, Inc., Seoul, Korea) supplemented with heat-inactivated 10% FBS (WelGene), penicillin (100 units/mL) and streptomycin ([…]), All the cell lines were maintained in a humidified atmosphere of 5% CO2 and 95% air at 37° C. Two days before imaging, the cells were moved and plated onto glass-bottomed dishes (MatTek), For labeling, the growth medium was removed and replaced with FBS-free DMEM. The cells were incubated with 3 μM ACCu2 for 20 minutes at 37° C., washed 3 times with FBS-free DMEM and imaged.
The viability of HeLa cells with the ACCu2 concentration was measured under the incubation condition using the CCK-8 kit (Cell Counting Kit-8, Dojindo, Japan) (FIG. 7). […] Accordingly, it can be seen that the copper(II) ion concentration in living cells can be measured with minimum interference from cytotoxicity.

[2] = Fluorescence titration with copper(II) ion (one-photon and two-photon); format: binding
Experimental: Referring to FIG. 3(b), when small increments of copper(II) ion were added to ACCu2 in EtOH/HEPES (9/1 viv, pH=7.0), the TPEF intensity at the channel 2 (Ired) decreased gradually without any appreciable change at the channel 1 (Iblue).
The dissociation constant (Kd) can be calculated using Equation (2): […]
wherein I is the fluorescence intensity, Ifinal is the fluorescence intensity for the CU^2+-ACCu2 complex and Iinitial is the fluorescence intensity for ACCu2.
The dissociation constants (Kd^OP and Kd^TP) of ACCu2 for the OP and TP processes can be calculated from the fluorescence titration curves shown in FIG. 3(b). […] These indicate 1:1 complexation between the probe and the cation.
Referring to FIG. 5(a), the fluorescence intensities of ACCu2 according to the present disclosure measured by the OP (one-photon) and TP (two-photon) processes decreased by 10-fold in the presence of 200 μM of copper(II) ion. […] This means that quantitative measurement of copper(II) ion is possible in this concentration range. Moreover, the Ired/Iblue ratios determined in the two-photon mode were well fitted by the titration curve obtained in the one-photon mode.

[3] = one-photon, excitation 373 nm, EtOH/HEPES (9:1, pH 7.0)
[4] = rat brain tissue, after copper(II) ion (500 μM) and PDTC (200 μM)

SMILES: COCCOCCOCCOc1ccc2c(ccc3cc(C(=O)N4CCN(C(=O)c5ccc(CNC(=O)c6cc7cc8ccc(N(C)C)cc8cc7oc6=O)nc5)CC4)c(=O)oc32)c1 [ACCu2]
- φ (fluorescence quantum yield) ([1]; 1,4-Dioxane (0.164)): 0.75
- red shift in the emission spectra with solvent polarity ([1]; 1,4-dioxane to H2O): 69 nm
- φ (fluorescence quantum yield) ([1]; DMF (0.386)): 0.54
- φ (fluorescence quantum yield) ([1]; EtOH (0.654)): 0.34
- φ (fluorescence quantum yield) ([1]; EtOH/HEPES (9:1)): 0.22
- energy transfer efficiency (ETE) ([1]; FRET from IR to FL moiety, excitation at 373 nm, Equation (1)): 93.4%
- φ (fluorescence quantum yield) ([1]; HEPES buffer 20 mM, pH 7.0): 0.0028
- antenna effect ([1]; TP mode, 750 nm vs direct excitation 880 nm): 3.1
- antenna effect ([1]; one-photon (OP) mode, 373 nm vs direct excitation 461 nm): 3.0
- λmax^abs ([1]; 1,4-Dioxane (0.164)): 380/437
- λmax^abs ([1]; DMF (0.386)): 371/456
- λmax^abs ([1]; EtOH (0.654)): 379/460
- λmax^abs ([1]; EtOH/HEPES (9:1)): 379/465
- λmax^abs ([1]; HEPES buffer 20 mM, pH 7.0): 380/453
- λmax^t1 ([1]; 1,4-Dioxane (0.164)): 533 nm
- λmax^t1 ([1]; DMF (0.386)): 577 nm
- λmax^t1 ([1]; EtOH (0.654)): 578 nm
- λmax^t1 ([1]; EtOH/HEPES (9:1)): 585 nm
- λmax^t1 ([1]; HEPES buffer 20 mM, pH 7.0): 602 nm
- decrease of area of blue emission (400-450 nm) from that of IR [1, 3]: 9.2 fold
- increase of area of red emission (550-650 nm) from that of FL [1, 3]: 3.4 fold
- decrease of blue emission ([1]; two-photon (TP) mode): 13 fold
- increase of red emission ([1]; two-photon (TP) mode): 3.1 fold
- Ired/Iblue ratio (rat brain tissue; ACCu2 (20 μM)-labeled rat brain tissue, untreated): 9.9±0.5
- Ired/Iblue ratio (rat brain tissue; [4]): 6.8±0.6
- free copper ion concentration (rat brain tissue; [4]): 14 ± 1.5 µM
- free copper(II) ion concentration (rat brain tissue; rat brain tissue, untreated): 0.0 ± 1.1 µM
- viability of HeLa cells (HeLa cells): did not affect the viability of HeLa cells
- detection limit for copper ion by TPM [2]: 0.84 µM
- decrease of fluorescence intensity ([2]; OP and TP processes, in the presence of 200 μM copper(II) ion): 10 fold
- copper(II) ion concentration range in which Ired/Iblue plot is linear ([2]; titration curve FIG. 5(b)): 0 to 0.25 µM
